Where a SMILES comes first, the peptide text is derived from it. [ ]: non-standard residue; d: D form. Met(O2) = CS(=O)(=O)CC[CH](N)C(=O)O; Met(O) = CS(=O)CC[CH](N)C(=O)O
Tests used:
[1] = system: Human dermal fibroblast cells; test: Hyaluronic acid (HA) secretion by human dermal fibroblasts, HTRF HABP kit; format: cell-based; conditions: 48 h, relative to vehicle control
Experimental: (§1) Human dermal fibroblast cells were grown in a 96 well plate in DMEM media (available from Corning, N.Y.) supplemented with 10% Fetal Bovine Serum (FBS) and L-glutamine (0.07×10^5 cells/plate). After reaching about 75% confluence, cells were transferred into DMEM media without FBS and incubated for 4-6 hours. Next, cells were treated with a peptide or prodrug thereof (MVV, Ac-MVV) or peptide derivative or prodrug thereof (M(O)2VV, Ac-M(O)2VV, Ac-M(O)VV) at 0.00001%, 0.0001%, 0.0005%, or 0.001% final concentration in DMEM media without FBS for 48 h. After treatment, the media were collected and cell viability was measured using MTT. The amount of collagen or hyaluronic acid (HA) secreted was tested in the media using an HTRF human pro-collagen I kit or an HTRF HABP kit, respectively (each available from Cisbio Inc., Bedford, Mass.).
(§2) The results for HA production following administration to the fibroblasts are summarized in Table 13 as percent change of HA production for each active relative to vehicle control. p values are given with respect to the change in HA on the fibroblasts with vehicle control administration or with respect to MWV administration.

[2] = system: Human dermal fibroblast cells; test: Collagen (pro-collagen I) secretion by human dermal fibroblasts, HTRF human pro-collagen I kit; format: cell-based; conditions: 48 h, relative to vehicle control
Experimental: as §1
as §2, with “collagen” for “HA”, “14” for “13”, “MVV” for “with respect to MWV”

[3] = system: Human 3D skin EFT400FT tissues; test: HA production in full thickness 3D skin cultures, HTRF HABP kit; format: cell-based; conditions: topical daily for 3 days, n=6
Experimental: A series of experiments was conducted to assess the effects of peptide derivatives on the production of hyaluronic acid (HA) on full thickness 3D skin cultures. Five different treatment regimens were assessed: (1) 0.01% by weight M(O)2VV in vehicle; (2) 0.002% by weight M(O)2VV in vehicle; (3) 0.01% by weight Ac-M(O)2VV in vehicle; (4) 0.002% by weight Ac-M(O)2VV in vehicle; and (5) vehicle alone (DMSO). Compositions at the indicated weight percentages in DMSO were applied to 3D skin equivalents daily for 3 consecutive days.
Human 3D skin EFT400FT tissues (MatTek, MA) were cultured following the manufacturer's instructions. Each treatment regimen was topically applied to six 3D skin samples. Different 3D skin samples were assigned to one of treatment regimens (1)-(5) as described above, with six skin tissue models allocated to each treatment regimen (i.e., n=6). Following treatment, media were collected and the amount of hyaluronic acid secreted from the cells was measured using a HTRF HABP kit (available from Cisbio Inc., Bedford, Mass.).
The results for HA production are shown in Table 15. p values are given in relation to administration with vehicle control alone or in relation to MVV.

explanted skin tissue [4] = test: Ex vivo skin explant HA score (alcian blue stain, image analysis); format: cell-based, human; conditions: for HA score, Mean: days 0, 1, 2, 5, 7
Experimental: (§3) Samples of explanted skin tissue were obtained from an abdominal plasty. Samples (33 in total) were maintained in tissue culture medium at 37° C. in a humid, 5% CO2 atmosphere for the duration of the study.
(§4) The skin tissue explants were then distributed into appropriate controls or treated samples in triplicates. The control received only a vehicle (DMSO), and the treatment samples received vehicle comprising either M(O)2VV or Ac-M(O)2VV at 0.0005%, 0.001%, or 0.01% by weight of the composition. Administration of vehicle or vehicle with the peptide occurred on days 0, 1, 2, 5, and 7.
(§5) Stained tissue sections (in triplicates) were examined for qualitative and semi-qualitative differences between treated and control samples and low and high power using Zeiss Mimax and Midi BF microscope and software system. For HA evaluation, samples were washed and processed with Methylthiazolyldiphenyl-tetrazolium bromide (MTT). MTT is converted to water-insoluble dark blue colored MTT-formazan by mitochondrial dehydrogenases. Subsequently the blue crystals have been solubilized and the color intensity, that is directly proportional to skin vitality, has been measured with a plate reader at a wavelength of 570 nm. For each analyzed skin sample the obtained absorbance value has been normalized upon the weight in grams. Twelve skin suctions were stained with an acian blue stain that dyes acid mucins such as hyaluronan to develop the HA score. Dermal collagen was also measured using a picrosirius red histochemical stain that dyes collagen fibers in purple-red. The papillary dermis was selected for the analysis as thi sis the portion of the dermis more subjected to collagen variation in response to treatment.
(§6) 8-bit grey-scale photomicrographs were captured and transformed from RGB to the standard CIE L*a*b* color space. The L* value for each pixel in the ROI was evaluated using ImageJ software (National Institutes of Health, Bethesda, Md.) with the Color Inspector 3D plug-in. The amount of hyaluron present was evaluated based on the intensity and distribution of blue color in the dermis using an imaging method analogous to that used for procollagen I. Scores reflecting the amount of hyaluronan detected were assigned using an image analysis algorithm proprietary to Cutech Srl. Higher HA scores is indicative of a higher HA content. Similarly, the amount of procollagen I was evaluated based on the intensity and distribution of immunostained procollagen I in the area corresponding to the papillary dermis, just below the epidermis. As above, 8-bit grey-scale photomicrographs were captured and transformed from RGB to the standard CIE L*a*b* color space. The L* value for each pixel in the ROI was evaluated using ImageJ software (National Institutes of Health, Bethesda, Md.) with the Color Inspector 3D plug-in. Scores reflecting the amount of procollagen I detected were assigned using an image analysis algorithm proprietary to Cutech Srl.
Columns marked with “**” were highly significant (p<0.05) with respect to untreated samples and with respect to samples administered vehicle alone (DMSO).

explanted skin tissue [5] = test: Ex vivo skin explant collagen score (papillary dermis, image analysis); format: cell-based, human; conditions: for Collagen score, Mean: days 0, 1, 2, 5, 7
Experimental: as §3, §4, §5, §6
Columns marked with “**” were highly significant (p<0.05) with respect to untreated samples and with respect to samples administered vehicle alone (DMSO.

Row | Compound | HA % change ([1]; 0.00001 wt %) [%] | HA % change ([1]; 0.0001 wt %) [%] | HA % change ([1]; 0.0005 wt %) [%] | HA % change ([1]; 0.001 wt %) [%] | Collagen % change ([2]; 0.00001 wt %) [%] | Collagen % change ([2]; 0.0001 wt %) [%] | Collagen % change ([2]; 0.0005 wt %) [%] | Collagen % change ([2]; 0.001 wt %) [%] | % HA change ([3]; 0.002% (20 ppm) in DMSO) [%] | % HA change ([3]; 0.01% (100 ppm) in DMSO) [%] | HA score % Change Over DMSO (explanted skin tissue [4]; 5 ppm) [%] | HA score % Change Over Untreated (explanted skin tissue [4]; 5 ppm) [%] | HA score, Mean (explanted skin tissue [4]; 5 ppm in DMSO) | HA score % Change Over DMSO (explanted skin tissue [4]; 10 ppm) [%] | HA score % Change Over Untreated (explanted skin tissue [4]; 10 ppm) [%] | HA score, Mean (explanted skin tissue [4]; 10 ppm in DMSO) | HA score % Change Over DMSO (explanted skin tissue [4]; 100 ppm) [%] | HA score % Change Over Untreated (explanted skin tissue [4]; 100 ppm) [%] | HA score, Mean (explanted skin tissue [4]; 100 ppm in DMSO) | Collagen score % Change Over DMSO (explanted skin tissue [5]; 5 ppm) [%] | further results
1 | CC(C)C(NC(=O)C(NC(=O)C(N)CCS(C)(=O)=O)C(C)C)C(=O)O (stereo not drawn) [M(O)2VV, methionine sulfone valine valine] (H-[Met(O2)]-Val-Val-OH; configuration not given here) | 14.01 | 17.49 | 10.25 | 19.43 | 5.74 | 12.51 | 1.56 | 6.07 | 6.236 | 10.28 | 18 | 21 | 12 | 14 | 17 | 11.6 | −4 | −1 | 9.8 | −7 | Collagen score % Change Over Untreated (explanted skin tissue [5]; 5 ppm): −25%; Collagen score, Mean (explanted skin tissue [5]; 5 ppm in DMSO): 53.6; Collagen score % Change Over DMSO (explanted skin tissue [5]; 10 ppm): 35%; Collagen score % Change Over Untreated (explanted skin tissue [5]; 10 ppm): 18%; Collagen score, Mean (explanted skin tissue [5]; 10 ppm in DMSO): 57.9; Collagen score % Change Over DMSO (explanted skin tissue [5]; 100 ppm): 13%; Collagen score % Change Over Untreated (explanted skin tissue [5]; 100 ppm): −5%; Collagen score, Mean (explanted skin tissue [5]; 100 ppm in DMSO): 55.6
2 | CC(=O)NC(CC[S+](C)[O-])C(=O)NC(C(=O)NC(C(=O)O)C(C)C)C(C)C (stereo not drawn) [Ac-M(O)VV] (Ac-[Met(O)]-Val-Val-OH; configuration not given here) | 17.50 | 16.95 | 17.69 | 21.87 | 7.20 | 4.59 | 14.02 | 13.49 |  |  |  |  |  |  |  |  |  |  |  |  | 
3 | MVV (listed as Homo sapiens) [MW, reference compound] | 5.79 | 1.63 | 3.66 | 9.00 | 7.22 | 10.56 | 31.22 | 6.22 |  |  |  |  |  |  |  |  |  |  |  |  | 
4 | CC(=O)NC(CCS(C)(=O)=O)C(=O)NC(C(=O)NC(C(=O)O)C(C)C)C(C)C (stereo not drawn) [Ac-M(O)2VV] (Ac-[Met(O2)]-Val-Val-OH; configuration not given here) | 10.33 | 7.31 | 7.90 | 11.04 | 12.29 | 11.29 | −0.56 | 13.65 | 1.386 | 12.47 | −7 | −4 | 9.5 | 25 | 28 | 12.7 | 9 | 12 | 11.1 | 73 | Collagen score % Change Over Untreated (explanted skin tissue [5]; 5 ppm): 57%; Collagen score, Mean (explanted skin tissue [5]; 5 ppm in DMSO): 61.7; Collagen score % Change Over DMSO (explanted skin tissue [5]; 10 ppm): 75%; Collagen score % Change Over Untreated (explanted skin tissue [5]; 10 ppm): 59%; Collagen score, Mean (explanted skin tissue [5]; 10 ppm in DMSO): 61.9; Collagen score % Change Over DMSO (explanted skin tissue [5]; 100 ppm): 52%; Collagen score % Change Over Untreated (explanted skin tissue [5]; 100 ppm): 35%; Collagen score, Mean (explanted skin tissue [5]; 100 ppm in DMSO): 59.6
